In PMC10319850, “Crystal structure of [1,2,4] triazolo[4,3- b ]pyridazine derivatives as BRD4 bromodomain inhibitors and structure–activity relationship study” (Scientific Reports, 2023):
Like-named read-outs stand apart in the source and are kept apart here.

Experiments:
BRD4 BD2 = BRD4 BD2 (Homo sapiens, UniProt O60885); assay: AlphaScreen assay, BRD4 BD2 inhibition; settings: for inhibitory activity for BD2 (in words): AlphaScreen
BRD4 BD1 = BRD4 BD1 (Homo sapiens, UniProt O60885); assay: AlphaScreen assay, BRD4 BD1 inhibition; format: binding; settings: for inhibitory activity against BD1 (in words): measured range 0.0096 to 32 μM
Method: To find the hit molecules for BRD4 bromodomain inhibitor discovery, we performed an in vitro AlphaScreen assay with in-house chemical libraries.
The AlphaScreen assay was described previously and performed according to the manufacturer’s protocol (PerkinElmer, USA). The reaction buffer was 50 mM HEPES pH 7.4, 100 mM NaCl, 0.1% BSA, and 0.05% CHAPS.

[1] = AlphaScreen, N = 3, standard deviations in parentheses, read-out: IC50 (BD1)
[2] = Supplementary Table S2, mean of three independent measurements, 8-point titration from 0.0096 to 32 μM, read-out: IC50 (μM) for BD1

Row | Compound | inhibitory activity against BD1 (in words) (BRD4 BD1; AlphaScreen) | IC50 (BRD4 BD1; [2]) [µM] | further results
1 | Cc1nnc2ccc(NCCc3c[nH]c4ccccc34)nn12 [Compound 5] | – | – | IC50 (BRD4 BD2): 23.2 µM; inhibitory activity for BD2 (in words) (BRD4 BD2): have inhibitory activities for BD2; IC50 (BRD4 BD1; [1]): 17.1 µM
2 | FC(F)(F)c1nnc2ccc(NCCc3c[nH]c4ccccc34)nn12 [Compound 6, N-[2-(1H-indol-3-yl)ethyl)-3-(trifluoromethyl)-[1,2,4]triazolo[4,3-b]pyridazin-6-amine] | did not much improved the IC50 value | – | IC50 (BRD4 BD2): 11.3 µM; inhibitory activity for BD2 (in words) (BRD4 BD2): have inhibitory activities for BD2; IC50 (BRD4 BD1; [1]): 9.6 µM
3 | Cc1nnc2ccc(NCCc3c[nH]c4ccc(F)cc34)nn12 [Compound 7, N-[2-(5-fluoro-1H-indol-3-yl)ethyl]-3-methyl-[1,2,4]triazolo[4,3-b]pyridazin-6-amine] | nearly same blocking efficacy | 29 ± 5.7 | –
4 | COc1ccc2[nH]cc(CCNc3ccc4nnc(C)n4n3)c2c1 [Compound 8, N-[2-(5-methoxy-1H-indol-3-yl)ethyl)-3-methyl-[1,2,4]triazolo[4,3-b]pyridazin-6-amine] | nearly same blocking efficacy | 25.7 ± 11.1 | –
5 | FC(F)(F)c1nnc2ccc(NCC(c3ccccc3)c3c[nH]c4ccccc34)nn12 (stereo not drawn) [Compound 9, N-[2-(1H-indol-3-yl)-2-phenylethyl]-3-(trifluoromethyl)-[1,2,4]triazolo[4,3-b]pyridazin-6-amine] | increased the IC50 value by only twofold compared to that of 6 | 23.4 ± 8.3 | –
6 | Fc1cc2[nH]cc(CCNc3ccc4nnc(C5CC5)n4n3)c2cc1Cl [Compound 10, N-[2-(5-chloro-6-fluoro-1H-indol-3-yl)ethyl]-3-cyclopropyl-[1,2,4]triazolo[4,3-b]pyridazin-6-amine] | no inhibitory efficiency in the measured range | > 32 | –
7 | Fc1ccc2[nH]c3c(c2c1)CCN(c1ccc2nnc(-c4ccccc4F)n2n1)C3 [Compound 11, 6-Fluoro-2-[3-(2-fluorophenyl)-[1,2,4]triazolo[4,3-b]pyridazin-6-yl]-1,3,4,9-tetrahydropyrido[3,4-b]indole] | no inhibition | > 32 | –
8 | CCc1nnc2ccc(NC(CO)Cc3c[nH]c4ccccc34)nn12 (stereo not drawn) [Compound 12, 2-[(3-ethyl-[1,2,4]triazolo[4,3-b]pyridazin-6-yl)amino]-3-(1H-indol-3-yl)propan-1-ol] | decreased blocking efficiency compared to that of 5 | – | IC50 (BRD4 BD2): 36.5 µM; inhibitory activity for BD2 (in words) (BRD4 BD2): have inhibitory activities for BD2; IC50 (BRD4 BD1; [1]): 25.2 µM
9 | Cc1nnc2ccc(N3C4CCC3COC4)nn12 [Compound 18] | no inhibitory efficacy | > 32 | –
10 | Cc1nnc2ccc(NCCNC(=O)OC(C)(C)C)nn12 [Compound 32] | – | > 32 | –
11 | CCOC(=O)CCNc1ccc2nnc(C)n2n1 [Compound 33] | showed inhibitory activity | 7.51 ± 0.63 | –
12 | Cc1nnc2ccc(NCc3ccccc3)nn12 [Compound 35] | – | 10.2 ± 1.29 | –
13 | COc1ccc(CNc2ccc3nnc(C)n3n2)cc1 [Compound 37] | – | 8.91 ± 0.94 | –
14 | Cc1nnc2ccc(NCCC(=O)Nc3ccccc3)nn12 [Compound 38] | – | > 32 | –
15 | Cc1nnc2ccc(NCCNC(=O)c3ccccc3)nn12 [Compound 39] | – | > 32 | –
16 | Cc1nnc2ccc(NCCNC(=O)Nc3ccccc3)nn12 [Compound 40] | – | > 32 | –

More lines, main results first:

Row | inhibitory activity against BD1 (in words) (BRD4 BD1; AlphaScreen) | IC50 (BRD4 BD1; [2]) [µM] | Compound | further results
17 | no blocking activities | > 32 | Cc1nnc2ccc(N3CCCCC3)nn12 [Compound 13] | –
18 | no inhibitory efficacy | > 32 | CC1CCN(c2ccc3nnc(CNS(=O)(=O)N(C)C)n3n2)CC1 [Compound 15] | –
19 | no inhibitory efficacy | > 32 | Cc1nnc2ccc(N3CCOCC3)nn12 [Compound 16] | –
20 | no inhibitory efficacy | > 32 | Cc1nnc2ccc(N3CCSCC3)nn12 [Compound 17] | –
21 | exhibited inhibitory activities | 9.22 ± 1.6 | Cc1nnc2ccc(N3CCC4(CCN(C(=O)OC(C)(C)C)CC4)CC3)nn12 [Compound 19] | –
22 | – | > 32 | Cc1nnc2ccc(N3CCC4(CC3)OCCO4)nn12 [Compound 20] | –
23 | exhibited inhibitory activities | 6.21 ± 1.2 | Cc1nnc2ccc(N3CCC4(CC3)CN(C(=O)OC(C)(C)C)C4)nn12 [Compound 21] | –
24 | – | > 32 | Cc1nnc2ccc(N3CCC4(CCNCC4)CC3)nn12 [Compound 22] | –
25 | – | > 32 | Cc1nnc2ccc(N3CCC4(CC3)CNC4)nn12 [Compound 23] | –
26 | – | > 32 | CC(C)c1nnc2ccc(N3CCC(C(=O)O)CC3)nn12 [Compound 24, 1-(3-Isopropyl-[1,2,4]triazolo[4,3-b]pyridazin-6-yl)piperidine-4-carboxylic acid] | –
27 | – | > 32 | CC(C)CCNC(=O)C1CCN(c2ccc3nnc(C(C)C)n3n2)CC1 [Compound 25, N-(3-methylbutyl)-1-[3-(propan-2-yl)[1,2,4]triazolo[4,3-b]pyridazin-6-yl]piperidine-4-carboxamide] | –
28 | – | > 32 | CC(C)c1nnc2ccc(N3CCC(C(=O)NC4CC4)CC3)nn12 [Compound 26, N-cyclopropyl-1-[3-(propan-2-yl)[1,2,4]triazolo[4,3-b]pyridazin-6-yl]piperidine-4-carboxamide] | –
29 | – | > 32 | CC(C)N1CCN(c2ccc3nnc(C4CCC4)n3n2)CC1 [Compound 27, 3-cyclobutyl-6-(4-isopropylpiperazino)[1,2,4]triazolo[4,3-b]pyridazine] | –
30 | – | > 32 | Cc1nnc2ccc(NCCC(=O)O)nn12 [Compound 28] | –
31 | – | > 32 | CCS(=O)(=O)NCCNc1ccc2nnc(C)n2n1 [Compound 29] | –
32 | – | > 32 | Cc1nnc2ccc(NCCO)nn12 [Compound 31] | –
33 | – | > 32 | CCC(=O)NCCNc1ccc2nnc(C)n2n1 [Compound 34] | –
